The source of these data is a melting point compilation (Tetko et al.; mined from patent text by program, amines drawn as free bases though some values may be those of a salt).

The structures appear in SMILES notation. Bounds are passed on as bounds.

A word on the melting point: it is the temperature of the solid-liquid transition. `O=C1NC(=S)SC1=Cc1ccccc1C(=O)O` gave a melting point of 276 to 278 °C.
The result for `CC(C)N(C(N)=O)C(Oc1ccccc1)C(C)(O)Cl` (configuration not stated) reads 154 °C; that for `N=C(Nc1ccc(Cl)cc1)Nc1ncccc1OCc1c(F)cccc1F`, 146 to 148 °C; that for `FC(F)(F)c1nnc2c(Cl)nc3ccc(Cl)cc3n12`, 133 to 135 °C.
For `CS(=O)(=O)c1nc(Cl)c(-c2c(F)cc(F)cc2F)c(N2CCCO2)n1` the value was 210 to 219 °C; for `O=C(O)C1Cc2c(cccc2-c2ccccc2)CN1C(=O)C(c1ccccc1)c1ccccc1` (configuration not stated), 216 to 221 °C; for `CCOC(=O)C(CO)c1ccc(OCC)cc1` (configuration not stated), 35 to 36 °C.
For `COc1cccc2c1CC(C(=O)O)N2C(=O)OC(C)(C)C` (configuration not stated) the value was 148 to 150 °C.
On to `O=[N+]([O-])c1ccccc1NCCNc1ccccc1`, for which the melting point lay within 64 to 66 °C.
The compound `NC(=NCC(F)(F)F)Nc1ccnc(COCCO)n1` gave a melting point of 144 to 146 °C.
Compound `O=c1ccc(OS(=O)(=O)C(F)(F)F)n[nH]1` gave a melting point of 130 to 132 °C.
Take `CCS(=O)(=O)N(C)C1CCN(c2ccccc2)c2ccccc21` (configuration not stated): the melting point amounted to 72 °C.
The result for `Cc1nn(CCOc2ccc(C=O)cc2)c(=O)c2ccccc12` reads 90 °C; that for `O=C(NCCCSc1ccncc1)c1ccccc1CO`, 110 to 111 °C.
`CCc1nc2c(-c3cc4c(c(Br)c3C)OCC4)ncnc2n1C(C1CC1)C1CC1` gave a melting point of 179 to 180 °C.
For `O=[N+]([O-])c1cnccc1Oc1ccc2[nH]ccc2c1` the value was 182 to 184 °C; for `COc1cn(-c2cc(F)c(N3CCOCC3)cc2F)nc(-c2ccnn2-c2ccccc2)c1=O`, 211 to 212 °C.
For the compound `COC(=O)N1CCCSC1=C[N+](=O)[O-]`, the melting point was in the range of 93 to 95 °C.
The result for `CN1CCC(c2ccc(Nc3cc(-c4cccc(-n5ncc6cc(C(C)(C)C)cc(F)c6c5=O)c4CO)nn(C)c3=O)nn2)CC1` reads 260 to 265 °C; that for `O=C1C(=O)N(CCCCN2CCN(C(c3ccccc3)c3ccccc3)CC2)c2ccc(Br)cc21`, 132 to 133 °C.
For `O=C1OC(Cl)(C(=O)OCc2ccc([N+](=O)[O-])cc2)c2ccccc21` (configuration not stated) the value was 132 to 134 °C.
For `Cc1c(Cc2cccc(C(F)(F)F)c2)oc2c(-c3cccc(C(=O)NCCC#N)c3)cccc12` the value was 158 to 159 °C; for `CN1CCC23CC(=O)CCC2(O)C1Cc1ccccc13` (configuration not stated), 143 to 144 °C.
For the compound `CC(=O)OC1OC(COC(=O)c2ccccc2)CC(OC(=O)c2ccccc2)C1OC(=O)c1ccccc1` (configuration not stated), the melting point fell in the range of 123 to 124 °C.
The result for `CCOC(=O)C1CCN(C(=O)c2[nH]c(C)c(-c3nc4ccc(C(=O)c5ccccc5)cc4[nH]3)c2C)CC1` reads 272 to 274 °C; that for `COCCOc1ccc(O)cc1`, 97.9 °C.
`COc1cc(C(=O)CBr)cc(Cl)c1OC` displayed a melting point of 76.5 to 78 °C.
As for `CCN1CCCC1CNC(=O)c1c(OC)c(Cl)cc(Cl)c1OC` (configuration not stated), the melting point lay in the range of 120 to 121 °C.
The result for `Cc1cc(O)cc(O)c1C=O` reads 174 to 177 °C.
The result for `CCc1c2nc(-c3cc(S(C)(=O)=O)ccc3OCC(C)C)[nH]c(=O)c2nn1C1CCN(C(C)C)CC1` reads 273 to 275 °C.
For `O=C(Nc1cccc(Cl)c1)N[C@H]1C[C@H](C(=O)O)Nc2cc(Cl)cc(Cl)c21` (relative stereo) the value was 173 to 175 °C; for `O=C(CCSCCSCCSCCC(=O)Nc1ccc(Nc2ccccc2)cc1)Nc1ccc(Nc2ccccc2)cc1`, 196 to 198 °C; for `Cn1nc(-c2ccccc2)c(C2CCCCC2)c1N`, 212 to 214 °C.
In turn, `COc1ccc(C(=O)Nc2cccnc2)c2c3cc(Cl)ccc3n(Cc3ccc(F)cc3)c12` yielded a melting point of 224 to 228 °C.
As to `COC12CC(CCCO)CN(C)C1Cc1c[nH]c3cccc2c13` (configuration not stated), the melting point is 190 to 195 °C.
For `CC1OC2(CCN(c3nc(=O)c4cc(C(F)(F)F)cc([N+](=O)[O-])c4s3)CC2)OC1C` (configuration not stated) the value was 205 to 207 °C; for `O=C1c2c(O)cccc2C(c2ccccc2)c2cccc(O)c21`, 193 to 194 °C; for `N#Cc1ccc(CC(NC(=O)C(Cc2ccccc2)S(=O)(=O)Nc2ccc3ccccc3c2)C(=O)N2CCCC2)cc1` (configuration not stated), 206 °C.
For `NC(=S)NCCCCCC(=O)Nc1ccc(C(F)(F)F)cc1` the value was 140 to 142 °C; for `O=C1N(Cc2ccc(C(F)(F)F)o2)c2cccc(Cl)c2C12COc1cc3c(cc12)CCO3` (configuration not stated), 166 to 169 °C.
The result for `CCCCc1nn(-c2cc([N+](=O)[O-])ccc2C(F)(F)F)c(=O)n1Cc1ccc(-c2ccccc2S(=O)(=O)NC(C)(C)C)cc1` reads 135 to 137 °C; that for `COC(=O)Nc1nc2cc(C(C3CC3)n3ccnc3)ccc2[nH]1` (configuration not stated), 218 °C.
`CC(C)(C)OC(=O)Nc1sc(-c2cncc(F)c2)nc1F` displayed a melting point of 188 to 191 °C.
`COC(=O)C=Cc1ccc(C)s1` came in with a melting point of 59 to 60 °C.
The result for `CC1(c2ccc(N)c(C(=O)c3ccccc3)c2)OCCO1` reads 108 to 111 °C; that for `Cc1ccc([C@@H](O)C(F)(F)F)cc1`, 44.2 °C; that for `CCC(=O)c1ccc(O)c(C(C)C)c1`, 105 °C.
The result for `O=C1N(Cc2noc(C(F)(F)F)n2)c2ccccc2C12COc1cc3c(cc12)OCCO3` (configuration not stated) reads 159 to 160 °C; that for `O=C1c2c(-c3ccccc3)cc(CCl)nc2OCCN1Cc1cc(C(F)(F)F)cc(C(F)(F)F)c1`, 183 to 184 °C.
The result for `NC(=O)C1(O)c2ccccc2S(=O)(=O)N1Cc1ccc(Br)cc1` (configuration not stated) reads 166 to 168 °C; that for `COc1cc(CCC=CC(C)=O)ccc1OCc1ccccc1`, 59.5 to 60.5 °C; that for `CSC1NC(=O)N(Cc2ccco2)C(=O)N1`, 209 to 211 °C.
In turn, `CCOC(=O)c1cc(NC(=O)C(N)Cc2ccc(Cl)c(Cl)c2)c[nH]1` (configuration not stated) displayed a melting point of 134 to 136 °C.
For `Cc1cc(Cl)c(Nc2ccc(C)cc2CC(=O)O)c(Cl)c1` the value was 179 to 182 °C; for `CC(C)(C)C(=O)OCN(c1ccc(CN2CCN(Cc3ccccc3)C(=O)C2=O)cc1)c1ncccn1`, 144 to 146 °C; for `CCCN1CCC(C(=O)Nc2ccc(CN(C)C3CCOCC3)cc2)=Cc2cc(Br)ccc21`, 134 to 136 °C.
In turn, `CC1(C)CS(=O)(=O)CC(C)(C)N1Cl` came in with a melting point of 163 °C.
The result for `CC(C)c1noc(-c2ccccc2)c1-c1ccc(S(N)(=O)=O)cc1` reads 205 °C; that for `COc1cc2cc3c(Cl)c(C#N)cnc3cc2cc1O`, greater than 300 °C.
The result for `CCCCCCCCc1ccc(N(c2ccc(CCCCCCCC)cc2)C2(c3ccc(N(CC)CC)cc3C)OC(=O)c3nccnc32)cc1` (configuration not stated) reads 180 to 187 °C.
For `CC(C)N(C)c1nccc(Oc2ccc(NC(=O)c3cc(F)cc(N4CCOCC4)c3)c3ccccc23)n1` the value was 94 to 96 °C; for `O=Cc1cccn1CCN1CCC(=C2c3ccccc3CCn3ccnc32)CC1`, 158 °C.
